Read-outs that look alike come from different tables or passages of the source.

One experiment has as its target hGLP-1R (Homo sapiens, UniProt P43220). The experiment is described as follows: Functional cAMP formation (HTRF) in HEK-293 clonal cells expressing hGLP-1R, 0.1% bovine casein, without or with 1.0% human serum albumin. The format is cell-based. The arrangement: expressed in transfected cells. Particulars: for EC50: cAMP, 0.1% bovine casein (no human serum albumin), geometric mean. Put shortly:
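Cells were stimulated with peptide for 30 min at 37° C, then lysed in buffer carrying cAMP-d2 and anti-cAMP Eu3+-cryptate for a competitive HTRF read after at least 60 min at room temperature. The 665/620 nm ratio was converted to nM cAMP against a standard curve.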

For experiment [1], the target named is T1, human GLP-1 receptor (hGLP-1R) (Homo sapiens, UniProt P43220).
T1 construct: expressed in transfected cells; crude membranes
The experiment is described as follows: [125I]-GLP-1 binding, SPA with membranes of HEK293 cells expressing hGLP-1R.

In experiment [2] the target is T2, human GIP receptor (hGIPR) (Homo sapiens, UniProt P48546).
T2 construct: expressed in transfected cells; crude membranes
T2 sequence (P48546 22-466): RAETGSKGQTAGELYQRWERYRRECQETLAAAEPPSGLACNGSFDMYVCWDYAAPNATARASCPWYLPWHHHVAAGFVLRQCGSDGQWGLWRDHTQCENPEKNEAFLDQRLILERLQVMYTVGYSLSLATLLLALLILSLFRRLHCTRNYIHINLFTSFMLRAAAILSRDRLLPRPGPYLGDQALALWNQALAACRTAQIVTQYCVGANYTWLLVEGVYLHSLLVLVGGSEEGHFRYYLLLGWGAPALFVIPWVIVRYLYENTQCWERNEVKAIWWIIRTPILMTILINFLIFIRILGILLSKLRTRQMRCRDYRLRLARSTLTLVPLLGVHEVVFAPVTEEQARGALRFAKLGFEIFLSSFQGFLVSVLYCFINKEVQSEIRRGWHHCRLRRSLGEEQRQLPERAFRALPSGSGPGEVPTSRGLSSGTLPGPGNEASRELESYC
The experiment can be described thus: [125I]-GIP binding, SPA with membranes of CHO cells expressing hGIPR.

Setting [3] is: HEK293, 0.1% bovine casein and 1.0% human serum albumin, 37° C., percent of maximal response to GLP-1(7-36)NH2, read-out: hGLP-1R Emax, % ± SEM.
Where [4] appears, read: HEK293, percent of maximal response to GLP-1(7-36)NH2, 37° C., 0.1% bovine casein, arithmetic mean, read-out: hGLP-1R Emax, % ± SEM.
The mark [5] stands for this setting: incubated at 37° C., read-out: hGLP-1R EC50, nM (SEM, n).
[6] abbreviates: human GLP-1R, geometric mean (SEM, n), read-out: Binding Affinity Ki, nM (SEM, n) hGLP-1R.
Where [7] appears, read: human GIPR, geometric mean (SEM, n), read-out: Binding Affinity Ki, nM (SEM, n) hGIPR.

hGLP-1R, sequence (P43220 24-463): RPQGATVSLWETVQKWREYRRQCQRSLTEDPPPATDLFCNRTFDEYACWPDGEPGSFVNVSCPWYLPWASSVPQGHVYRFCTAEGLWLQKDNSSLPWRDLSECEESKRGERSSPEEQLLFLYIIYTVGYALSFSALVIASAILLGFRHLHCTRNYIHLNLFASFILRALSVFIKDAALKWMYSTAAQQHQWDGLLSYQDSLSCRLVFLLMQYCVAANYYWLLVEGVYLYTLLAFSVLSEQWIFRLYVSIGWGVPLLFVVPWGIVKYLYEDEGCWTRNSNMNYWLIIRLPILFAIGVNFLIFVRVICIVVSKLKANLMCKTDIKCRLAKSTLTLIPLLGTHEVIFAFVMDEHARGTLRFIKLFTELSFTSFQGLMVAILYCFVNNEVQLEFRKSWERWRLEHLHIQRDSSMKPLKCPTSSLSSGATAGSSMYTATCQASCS
T1 sequence (P43220 24-463): as above

One may read the Emax as the greatest response seen or fitted, relative to the assay's reference. By EC50 is commonly meant the concentration that produces a half-maximal response. What is called Ki is a measure of affinity in units of concentration, obtained from inhibition or displacement. `CC[C@H](C)[C@H](NC(=O)[C@H](CC(C)C)NC(=O)[C@](C)(Cc1ccc(O)cc1)NC(=O)[C@@H](CCC(=O)O)NC(=O)[C@@H](NC(=O)[C@H](Cc1ccccc1)NC(=O)[C@H](CCC(=O)O)NC(=O)C(C)(C)NC(=O)[C@H](CCC(N)=O)NC(=O)[C@H](C)NC(=O)[C@H](CCCCNC(=O)COCCOCCNC(=O)COCCOCCNC(=O)CC[C@H](NC(=O)CCCCCCCCCCCCC(=O)O)C(=O)O)NC(=O)[C@H](CCCN)NC(=O)[C@H](CC(=O)O)NC(=O)[C@H](CC(C)C)NC(=O)[C@](C)(CC(C)C)NC(=O)[C@@H](NC(=O)[C@](C)(CO)NC(=O)[C@@H](NC(=O)[C@H](CC(=O)O)NC(=O)[C@H](CO)NC(=O)[C@@H](NC(=O)[C@](C)(Cc1ccccc1F)NC(=O)[C@@H](NC(=O)CNC(=O)[C@H](CCC(=O)O)NC(=O)C(C)(C)NC(=O)[C@@H](N)Cc1ccc(O)cc1)[C@@H](C)O)[C@@H](C)O)C(C)C)[C@@H](C)CC)[C@@H](C)CC)C(=O)N[C@@H](CCC(=O)O)C(=O)NCC(=O)NCC(=O)N[C@@H](CCCCNC(=O)COCCOCCNC(=O)COCCOCCNC(=O)CC[C@H](NC(=O)CCCCCCCCCCCCC(=O)O)C(=O)O)C(=O)N[C@@H](CO)C(=O)N[C@@H](CO)C(=O)NCC(=O)N[C@@H](C)C(=O)N1CCC[C@H]1C(=O)N1CCC[C@H]1C(=O)N1CCC[C@H]1C(=O)N[C@@H](CO)C(N)=O` [Example 212]: the Emax turned out to be 91% at hGLP-1R (setting [3]) and 94.7% at hGLP-1R (setting [4]). The half-maximal effective concentration (EC50) on hGLP-1R (setting [5]) came to 0.265 nM. The results for the Ki in experiment [1] (setting [6]) and in experiment [2] (setting [7]) were 1.17 nM and 0.161 nM, respectively.
For `CC[C@H](C)[C@H](NC(=O)[C@H](CC(C)C)NC(=O)[C@](C)(Cc1ccc(O)cc1)NC(=O)[C@@H](CCC(=O)O)NC(=O)[C@@H](NC(=O)[C@H](Cc1ccccc1)NC(=O)[C@H](CCC(=O)O)NC(=O)C(C)(C)NC(=O)[C@H](CCC(N)=O)NC(=O)[C@H](C)NC(=O)[C@H](CCCCNC(=O)COCCOCCNC(=O)COCCOCCNC(=O)CC[C@H](NC(=O)CCCCCCCCCCCCC(=O)O)C(=O)O)NC(=O)[C@H](CCCN)NC(=O)[C@H](CC(=O)O)NC(=O)[C@H](CC(C)C)NC(=O)[C@](C)(CC(C)C)NC(=O)[C@@H](NC(=O)C(C)(C)NC(=O)[C@@H](NC(=O)[C@H](CC(=O)O)NC(=O)[C@H](CO)NC(=O)[C@@H](NC(=O)[C@](C)(Cc1ccccc1F)NC(=O)[C@@H](NC(=O)CNC(=O)[C@H](CCC(=O)O)NC(=O)C(C)(C)NC(=O)[C@@H](N)Cc1ccc(O)cc1)[C@@H](C)O)[C@@H](C)O)C(C)C)[C@@H](C)CC)[C@@H](C)CC)C(=O)N[C@@H](CCC(=O)O)C(=O)NCC(=O)NCC(=O)N[C@@H](CCCCNC(=O)COCCOCCNC(=O)COCCOCCNC(=O)CC[C@H](NC(=O)CCCCCCCCCCCCC(=O)O)C(=O)O)C(=O)N[C@@H](CO)C(=O)N[C@@H](CO)C(=O)NCC(=O)N[C@@H](C)C(=O)N1CCC[C@H]1C(=O)N1CCC[C@H]1C(=O)N1CCC[C@H]1C(=O)N[C@@H](CO)C(N)=O` [Example 91], the Emax on hGLP-1R (setting [3]) came to 89.8%; at hGLP-1R (setting [4]), 94 ± 5.44%. In addition, the concentration giving a half-maximal response (EC50) on hGLP-1R (setting [5]) is 0.153 nM. Also, the Ki is 1.26 nM in experiment [1] (setting [6]) and 0.126 nM in experiment [2] (setting [7]).
For `CC[C@H](C)[C@H](NC(=O)[C@H](CC(C)C)NC(=O)[C@](C)(Cc1ccc(O)cc1)NC(=O)[C@H](CCCCNC(=O)CC[C@H](NC(=O)COCCOCCNC(=O)COCCOCCNC(=O)CC[C@H](NC(=O)CCCCCCCCCOc1ccc(C(=O)O)cc1)C(=O)O)C(=O)O)NC(=O)[C@@H](NC(=O)[C@H](Cc1ccccc1)NC(=O)[C@H](CCCN)NC(=O)C(C)(C)NC(=O)[C@H](CCC(N)=O)NC(=O)[C@H](C)NC(=O)[C@H](CCC(N)=O)NC(=O)[C@H](CCCN)NC(=O)[C@H](CC(=O)O)NC(=O)[C@H](CC(C)C)NC(=O)[C@](C)(CC(C)C)NC(=O)[C@@H](NC(=O)C(C)(C)NC(=O)[C@H](Cc1ccncc1)NC(=O)[C@H](CC(=O)O)NC(=O)[C@H](CO)NC(=O)[C@@H](NC(=O)[C@](C)(Cc1ccccc1F)NC(=O)[C@@H](NC(=O)CNC(=O)[C@H](CCC(=O)O)NC(=O)C(C)(C)NC(=O)[C@@H](N)Cc1ccc(O)cc1)[C@@H](C)O)[C@@H](C)O)[C@@H](C)CC)[C@@H](C)CC)C(=O)N[C@@H](CCCCNC(=O)CC[C@H](NC(=O)COCCOCCNC(=O)COCCOCCNC(=O)CC[C@H](NC(=O)CCCCCCCCCOc1ccc(C(=O)O)cc1)C(=O)O)C(=O)O)C(=O)NCC(=O)NCC(=O)N1CCC[C@H]1C(=O)N[C@@H](CO)C(=O)N[C@@H](CO)C(=O)NCC(=O)N[C@@H](C)C(=O)N1CCC[C@H]1C(=O)N1CCC[C@H]1C(=O)N1CCC[C@H]1C(=O)N[C@@H](CO)C(N)=O` [Example 483], the maximal response (Emax) turned out to be 113% at hGLP-1R (HEK293, read-out: hGLP-1R Emax, % ± SEM, cAMP, 37° C., 0.1% bovine casein and 1.0% human serum albumin, percent of maximal response to GLP-1(7-36)NH2); 118% at hGLP-1R (HEK293, read-out: hGLP-1R Emax, % ± SEM, cAMP, 37° C., 0.1% bovine casein, percent of maximal response to GLP-1(7-36)NH2, arithmetic mean). For the same compound, at hGLP-1R (hGLP-1R EC50, nM (SEM, n), 37° C.), it took 0.169 nM to reach a half-maximal effect (EC50). The Ki in experiment [1] amounted to 0.263 nM; in experiment [2], 0.0236 nM.

Source of the values: patent US20230265151A1, “GIP/GLP1 CO-AGONIST COMPOUNDS” (priority 2020, published 2023).
